Measured values reported in patent publication US10874743B2, “IRAK degraders and uses thereof” (Kymera Therapeutics, Inc., priority 2017, dated 2020).

Molecular target: T1, IRAK4 (Homo sapiens, UniProt Q9NWZ3)
T1 sequence (Q9NWZ3 1-460): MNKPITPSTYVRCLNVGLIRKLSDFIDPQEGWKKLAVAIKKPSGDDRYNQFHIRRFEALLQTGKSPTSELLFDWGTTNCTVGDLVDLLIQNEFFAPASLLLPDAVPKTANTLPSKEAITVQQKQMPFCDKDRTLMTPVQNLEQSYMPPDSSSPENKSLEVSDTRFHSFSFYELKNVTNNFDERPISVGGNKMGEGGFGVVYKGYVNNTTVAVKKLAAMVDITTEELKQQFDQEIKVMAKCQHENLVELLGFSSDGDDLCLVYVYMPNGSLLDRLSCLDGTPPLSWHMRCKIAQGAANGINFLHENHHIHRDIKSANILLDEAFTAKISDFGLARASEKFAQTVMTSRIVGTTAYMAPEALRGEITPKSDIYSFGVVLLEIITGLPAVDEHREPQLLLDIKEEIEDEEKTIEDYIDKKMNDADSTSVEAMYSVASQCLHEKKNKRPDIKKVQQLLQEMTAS
Assay: OCI-LY-10 degradation assay (western blot, % IRAK4 degraded after 4 hours)
Format: cell-based
Design: endogenous in cells; host or cells: OCI-LY10
Details: OCI-LY10 cells; for OCI-LY10 % IRAK4 Degradation (0.01 uM) / OCI-LY10 % IRAK4 Degradation (0.1 uM) / OCI-LY10 % IRAK4 Degradation (1 uM): 4 hours; for OCI-LY10 % IRAK4 Degradation (0.01 uM): 0.01 uM compound; for OCI-LY10 % IRAK4 Degradation (0.1 uM): 0.1 uM compound; for OCI-LY10 % IRAK4 Degradation (1 uM): 1 uM compound; for OCI-LY10 % IRAK4 Degradation: IRAK4 degraded after 4 hours, western blot
In short: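 IRAK4 loss after 4 h at 37° C was scored A (>50%), B (>20-50%) or C (<20%) from infrared western blots of RIPA lysates, 20-25 μg protein per lane. Compound was applied at 0.003-10 μM final to OCI-LY10 cells cultured in RPMI-1640 with 20% FBS and 55 μM 2-ME.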

SMILES | OCI-LY10 % IRAK4 Degradation (0.01 uM) | OCI-LY10 % IRAK4 Degradation (0.1 uM) | OCI-LY10 % IRAK4 Degradation (1 uM) | OCI-LY10 % IRAK4 Degradation
NC(=O)c1nn(-c2ccc(CNCCCCCOCCCc3cccc4c3C(=O)N(C3CCC(=O)NC3=O)C4=O)cc2)cc1NC(=O)c1coc(-c2ccnc(NCC3CC3)c2)n1 (stereo not drawn) [I-311] | C (<20% degradation) | A (>50% degradation) | A (>50% degradation) | 
NC(=O)c1nn(-c2ccc(C(=O)NCCOCCOCCOCCOCC#Cc3ccc4c(c3)C(=O)N(C3CCC(=O)NC3=O)C4=O)cc2)cc1NC(=O)c1coc(-c2ccnc(NCC(F)(F)F)c2)n1 (stereo not drawn) [I-149] |  |  |  | A (>50% degradation)
Cc1ncsc1-c1ccc(CNC(=O)[C@@H]2C[C@@H](O)CN2C(=O)[C@@H](NC(=O)COCCCCCOCCCCCNC(=O)CN2CCC(Nc3cccc(-c4cnc5ccc(C#N)cn45)n3)C2)C(C)(C)C)cc1 (stereo partly drawn) [I-205] |  |  |  | C (<20% degradation)
NC(=O)c1nn(-c2ccc(C(=O)NCC#CC#CCNc3cccc4c3C(=O)N(C3CCC(=O)NC3=O)C4=O)cc2)cc1NC(=O)c1coc(-c2ccnc(NCC(F)(F)F)c2)n1 (stereo not drawn) [I-177, N-[3-carbamoyl-1-[4-[6-[[2-(2,6-dioxo-3-piperidyl)-1,3-dioxo-isoindolin-4-yl]amino]hexa-2,4-diynylcarbamoyl]phenyl]pyrazol-4-yl]-2-[2-(2,2,2-trifluoroethylamino)-4-pyridyl]oxazole-4-carboxamide] |  |  |  | C (<20% degradation)
O=C1CCC(n2c(=O)oc3c(CCCOCCOCCNC(=O)c4ccc(-n5cc(NC(=O)c6coc(-c7ccnc(NCC(F)(F)F)c7)n6)c(C(F)F)n5)cc4)cccc32)C(=O)N1 (stereo not drawn) [I-256] | B (>20-50% degradation) | A (>50% degradation) | A (>50% degradation) | 
O=C1CCC(N2C(=O)c3ccc(NCc4cn(CCOCCOCCNCc5ccc(-n6cc(NC(=O)c7coc(-c8ccnc(NCC9CC9)c8)n7)c(C(F)F)n6)cc5)nn4)cc3C2=O)C(=O)N1 (stereo not drawn) [I-341] | C (<20% degradation) | A (>50% degradation) | A (>50% degradation) | 
CN(CCOCCOCCCc1ccc2c(c1)C(=O)N(C1CCC(=O)NC1=O)C2=O)Cc1ccc(-n2cc(NC(=O)c3coc(-c4ccncc4)n3)c(C(N)=O)n2)cc1 (stereo not drawn) [I-309] | B (>20-50% degradation) | A (>50% degradation) | A (>50% degradation) | 
NC(=O)[C@@H](O)C[C@H]1CCc2sc3ncnc(O[C@H]4CC[C@H](N5CCN(CCOCCOCCNc6cccc7c6C(=O)N(C6CCC(=O)NC6=O)C7=O)CC5)CC4)c3c21 (stereo partly drawn) [I-90, (2S)-3-[(8R)-1-[4-[4-[2-[2-[2-[[2-(2,6-dioxo-3-piperidyl)-1,3-dioxo-isoindolin-4-yl]amino]ethoxy]ethoxy]ethyl]piperazin-1-yl]cyclohexoxy]-7,8-dihydro-6H-cyclopenta[4,5]thieno[1,2-c]pyrimidin-8-yl]-2-hydroxy-propanamide] |  |  |  | B (>20-50% degradation)
CC[C@@H]1[C@H](F)C(=O)N[C@@H]1COc1ncc(C#Cc2ccc(OCCOCCOCCOCCNc3cccc4c3C(=O)N(C3CCC(=O)NC3=O)C4=O)cc2)c2cc(C(N)=O)c(OC)cc12 (stereo partly drawn) [I-425, 4-[2-[4-[2-[2-[2-[2-[[2-(2,6-Dioxo-3-piperidyl)-1,3-dioxo-isoindolin-4-yl]amino]ethoxy]ethoxy]ethoxy]ethoxy]phenyl]ethynyl]-1-[[(2S,3S,4S)-3-ethyl-4-fluoro-5-oxo-pyrrolidin-2-yl]methoxy]-7-methoxy-isoquinoline-6-carboxamide] | B (>20-50% degradation) | A (>50% degradation) | A (>50% degradation) | 
CN(CCOCCOCCNc1cccc2c1C(=O)N(C1CCC(=O)NC1=O)C2=O)C(=O)[C@H]1CC[C@H](NC(=O)c2cnc(-n3ncc4cc(C#N)cnc43)cc2NC2CC2)CC1 (stereo partly drawn) [I-42, 6-(5-cyano-1H-pyrazolo[3,4-b]pyridin-1-yl)-4-(cyclopropylamino)-N-((1r,4r)-4-((2-(2-(2-((2-(2,6-dioxopiperidin-3-yl)-1,3-dioxoisoindolin-4-yl)amino)ethoxy)ethoxy)ethyl) (methyl)carbamoyl)cyclohexyl)nicotinamide] |  |  |  | C (<20% degradation)
NC(=O)c1nn(-c2ccc(C(=O)NCCOCCOCCOCCOCC#Cc3cccc4c3C(=O)N(C3CCC(=O)NC3=O)C4=O)cc2)cc1NC(=O)c1coc(-c2ccnc(NCC(F)(F)F)c2)n1 (stereo not drawn) [I-236] | C (<20% degradation) | B (>20-50% degradation) | A (>50% degradation) | 
NC(=O)c1nn(-c2ccc(CNCCCc3cccc4c3C(=O)N(C3CCC(=O)NC3=O)C4=O)cc2)cc1NC(=O)c1coc(-c2ccncc2)n1 (stereo not drawn) [I-358] | C (<20% degradation) | C (<20% degradation) | C (<20% degradation) | 
CN(CCNCCCc1ccc2c(c1)C(=O)N(C1CCC(=O)NC1=O)C2=O)C(=O)c1ccc(-n2cc(NC(=O)c3coc(-c4ccncc4)n3)c(C(F)F)n2)cc1 (stereo not drawn) [I-378] | C (<20% degradation) | C (<20% degradation) | A (>50% degradation) | 
CC(OCCNc1cccc2c1C(=O)N(C1CCC(=O)NC1=O)C2=O)C(F)CNC(=O)c1cnc(-n2ncc3cc(C#N)cnc32)cc1NC1CC1 (stereo not drawn) [I-83] |  |  |  | C (<20% degradation)
NC(=O)c1nn(Cc2cn(CCOCCOCCNc3cccc4c3C(=O)N(C3CCC(=O)NC3=O)C4=O)nn2)cc1NC(=O)c1coc(-c2ccnc(NCC3CC3)c2)n1 (stereo not drawn) [I-304, N-[3-carbamoyl-1-[[1-[2-[2-[2-[[2-(2,6-dioxo-3-piperidyl)-1,3-dioxo-isoindolin-4-yl]amino]ethoxy]ethoxy]ethyl]triazol-4-yl]methyl]pyrazol-4-yl]-2-[2-(cyclopropylmethylamino)-4-pyridyl]oxazole-4-carboxamide] | C (<20% degradation) | C (<20% degradation) | C (<20% degradation) | 
Cc1ncsc1-c1ccc(CNC(=O)[C@@H]2C[C@@H](O)CN2C(=O)[C@@H](NC(=O)COCCOCCOCCNC(=O)c2ccc(-n3cc(NC(=O)c4coc(-c5ccnc(NCC(F)(F)F)c5)n4)c(C(N)=O)n3)cc2)C(C)(C)C)cc1 [I-115] |  |  |  | B (>20-50% degradation)
O=C1CCC(N2C(=O)c3cccc(CCCN4CCC(n5cc(NC(=O)c6coc(-c7ccnc(NCC8CC8)c7)n6)c(C(F)F)n5)CC4)c3C2=O)C(=O)N1 (stereo not drawn) [I-259] | C (<20% degradation) | C (<20% degradation) | C (<20% degradation) | 
CC(C)(OCCOCCOCCOCCOCCNc1cccc2c1C(=O)N(C1CCC(=O)NC1=O)C2=O)C(F)CNC(=O)c1cnc(-n2ncc3cc(C#N)cnc32)cc1NC1CC1 (stereo not drawn) [I-60] |  |  |  | C (<20% degradation)
CC[C@@H]1[C@H](F)C(=O)N[C@@H]1COc1nccc2cc(C(=O)NCCOCCOCCOCCOCCNC(=O)COc3cccc4c3C(=O)N(C3CCC(=O)NC3=O)C4=O)c(OC)cc12 (stereo partly drawn) [I-103] |  |  |  | C (<20% degradation)
